Patent US20240317735A1, “HYDROISOQUINOLINE OR HYDRONAPHTHYRIDINE COMPOUNDS FOR THE TREATMENT OF AUTOIMMUNE DISEASE” (Hoffmann-La Roche Inc., priority 2020, published 2024)

Molecular target: T1, human TLR8 (Homo sapiens, UniProt Q9NR97)
T1 construct: host or cells: HEK293 (HEK-Blue hTLR8)
T1 sequence (Q9NR97 27-1041): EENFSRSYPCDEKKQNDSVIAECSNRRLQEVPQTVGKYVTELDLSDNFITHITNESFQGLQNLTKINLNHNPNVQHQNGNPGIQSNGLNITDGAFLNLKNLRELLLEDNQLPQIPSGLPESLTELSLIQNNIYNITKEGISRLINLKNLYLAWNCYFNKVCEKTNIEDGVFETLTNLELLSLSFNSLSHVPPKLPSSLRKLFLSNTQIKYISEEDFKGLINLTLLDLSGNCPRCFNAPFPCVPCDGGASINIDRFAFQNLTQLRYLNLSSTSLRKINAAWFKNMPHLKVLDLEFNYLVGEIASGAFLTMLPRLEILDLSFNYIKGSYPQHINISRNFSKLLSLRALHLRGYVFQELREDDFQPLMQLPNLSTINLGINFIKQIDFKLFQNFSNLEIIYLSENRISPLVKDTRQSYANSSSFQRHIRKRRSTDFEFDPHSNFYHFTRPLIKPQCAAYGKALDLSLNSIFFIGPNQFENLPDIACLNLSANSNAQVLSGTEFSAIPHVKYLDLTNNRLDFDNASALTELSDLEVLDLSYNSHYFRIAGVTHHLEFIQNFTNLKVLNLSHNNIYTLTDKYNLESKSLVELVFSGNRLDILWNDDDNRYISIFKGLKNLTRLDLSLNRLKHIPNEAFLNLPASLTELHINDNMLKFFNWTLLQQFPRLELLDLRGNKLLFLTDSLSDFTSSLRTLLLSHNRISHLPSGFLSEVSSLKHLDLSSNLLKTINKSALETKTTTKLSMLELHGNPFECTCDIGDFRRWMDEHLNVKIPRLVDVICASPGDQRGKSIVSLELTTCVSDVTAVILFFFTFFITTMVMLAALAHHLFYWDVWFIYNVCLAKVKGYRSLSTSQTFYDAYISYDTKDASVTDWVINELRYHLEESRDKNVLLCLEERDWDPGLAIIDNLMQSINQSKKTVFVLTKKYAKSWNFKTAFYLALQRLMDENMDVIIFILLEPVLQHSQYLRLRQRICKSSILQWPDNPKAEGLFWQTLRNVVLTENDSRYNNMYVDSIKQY
Assay: HEK293-Blue-hTLR-8 cells assay (SEAP reporter, R848 stimulation)
Format: cell-based
Conditions: HEK293-Blue-hTLR8 cells, R848, 20 hrs; read-out: HEK/hTLR8 IC50
Description: The following tests were carried out in order to determine the activity of the compounds of formula (I) and (Ia) in HEK293-Blue-hTLR-7/8/9 cells assay.
A stable HEK293-Blue-hTLR-8 cell line was purchased from InvivoGen (Cat. #: hkb-htlr8, San Diego, California, USA). These cells were originally designed for studying the stimulation of human TLR8 by monitoring the activation of NF-κB. A SEAP (secreted embryonic alkaline phosphatase) reporter gene was placed under the control of the IFN-β minimal promoter fused to five NF-κB and AP-1-binding sites. The SEAP was induced by activating NF-κB and AP-1 via stimulating HEK-Blue hTLR8 cells with TLR8 ligands. Therefore the reporter expression was declined by TLR8 antagonist under the stimulation of a ligand, such as R848, for incubation of 20 hrs. The cell culture supernatant SEAP reporter activity was determined using QUANTI-Blue™ kit (Cat. #: rep-qb1, Invivogen, San Diego, Ca, USA) at a wavelength of 640 nm, a detection medium that turns purple or blue in the presence of alkaline phosphatase.
HEK293-Blue-hTLR8 cells were incubated at a density of 250,000˜450,000 cells/mL in a volume of 170 μL in a 96-well plate in Dulbecco's Modified Eagle's medium (DMEM) containing 4.5 g/L glucose, […] penicillin, […], […] Normocin, 2 mM L-glutamine, 10% (v/v) heat-inactivated fetal bovine serum with addition of 20 μL test compound in a serial dilution in the presence of final DMSO at 1% and 10 μL of 60 uM R848 in above DMEM, perform incubation under 37° C. in a C02 incubator for 20 hrs. Then 20 μL of the supernatant from each well was incubated with 180 μL Quanti-blue substrate solution at 37° C. for 2 hrs and the absorbance was read at 620-655 nm using a spectrophotometer. The signaling pathway that TLR8 activation leads to downstream NF-κB activation has been widely accepted, and therefore similar reporter assay was modified for evaluating TLR8 antagonist.

Q: For `Cc1cc(N2Cc3ccc(N4CCNCC4)cc3[C@@H](C)C2)c2cnn(C)c2n1` [Example 2, (4R)-2-(1,6-dimethylpyrazolo[3,4-b]pyridin-4-yl)-4-methyl-6-piperazin-1-yl-3,4-dihydro-1H-isoquinoline], which IC50 is on record?
A: 1 nM

Q: How did the IC50 turn out when `Cc1cc(N2Cc3cnc(O[C@@H]4C[C@H]5CNCCN5C4)cc3[C@@H](C)C2)c2cnn(C)c2n1` [Example 76, (4R)-2-(1,6-dimethylpyrazolo[3,4-b]pyridin-4-yl)-4-methyl-6-[[(7R,8aS)-1,2,3,4,6,7,8,8a-octahydropyrrolo[1,2-a]pyrazin-7-yl]oxy]-3,4-dihydro-1H-2,7-naphthyridine] was run?
A: 16 nM

Q: How did the IC50 turn out when `C[C@H]1CN(c2ccnc3c2cnn3C)Cc2ccc(N3CCN(S(=O)(=O)C4CCNC4)CC3)cc21` (stereo partly drawn) [Example 33, (4R)-4-methyl-2-(1-methylpyrazolo[3,4-b]pyridin-4-yl)-6-(4-pyrrolidin-3-ylsulfonylpiperazin-1-yl)-3,4-dihydro-1H-isoquinoline] was run?
A: 15 nM

Q: `C[C@H]1CN(c2ccnc3c2cnn3C)Cc2ccc(N3CCN(C(=O)C4CCCN4)CC3)cc21` (stereo partly drawn) [Example 8, pyrrolidin-2-yl-[4-[(4R)-4-methyl-2-(1-methylpyrazolo[3,4-b]pyridin-4-yl)-3,4-dihydro-1H-isoquinolin-6-yl]piperazin-1-yl]methanone] was tested. Which IC50 did it give?
A: 6 nM

Q: With `Cc1cc(N2Cc3ccc(N4CCC(O)(CN(C)C)CC4)nc3[C@@H](C)C2)c2cnn(C)c2n1` [Example 61, 4-[(dimethylamino)methyl]-1-[(8S)-6-(1,6-dimethylpyrazolo[3,4-b]pyridin-4-yl)-8-methyl-7,8-dihydro-5H-1,6-naphthyridin-2-yl]piperidin-4-ol] as the compound, how does the IC50 read?
A: 0.5 nM

Q: `C[C@H]1CN(c2ccnc3c2cnn3C)Cc2ccc(N3C[C@]4(CCNC4)CC3=O)cc21` (single isomer, unassigned) [Example 54] was tested. Which IC50 did it give?
A: 5 nM

Q: `Cc1cc(N2Cc3ccc(N4CCC(N)CC4)nc3[C@@H](C)C2)c2cnn(C)c2n1` [Example 58, 1-[(8S)-6-(1,6-dimethylpyrazolo[3,4-b]pyridin-4-yl)-8-methyl-7,8-dihydro-5H-1,6-naphthyridin-2-yl]piperidin-4-amine] was tested. Which IC50 did it give?
A: 0.4 nM

Q: For `C[C@H]1CN(c2ccnc3c2cnn3C)Cc2ccc(N3CCN(C(=O)C4CCNCC4)CC3)cc21` [Example 7, 4-piperidyl-[4-[(4R)-4-methyl-2-(1-methylpyrazolo[3,4-b]pyridin-4-yl)-3,4-dihydro-1H-isoquinolin-6-yl]piperazin-1-yl]methanone], which IC50 is on record?
A: 17 nM

Q: With `C[C@H]1CN(c2ccnc3c2cnn3C)Cc2ccc(N3CCC(N4CC(N)C4)CC3)cc21` [Example 28, 1-[1-[(4R)-4-methyl-2-(1-methylpyrazolo[3,4-b]pyridin-4-yl)-3,4-dihydro-1H-isoquinolin-6-yl]-4-piperidyl]azetidin-3-amine] as the compound, how does the IC50 read?
A: < 0.3 nM

Q: Which IC50 does the source give for `COC[C@H]1CN(c2cc3c(cn2)CN(c2cc(C)nc4c2cnn4C)C[C@@H]3C)CCN1` [Example 81, (4R)-2-(1,6-dimethylpyrazolo[3,4-b]pyridin-4-yl)-4-methyl-6-[(3R)-3-(methoxymethyl)piperazin-1-yl]-3,4-dihydro-1H-2,7-naphthyridine] here?
A: 8 nM

Q: `C[C@H]1CN(c2ccnc3c2cnn3C)Cc2ccc(N3C[C@@H]4CCNCC4C3=O)cc21` (relative stereo) [Example 55, cis-2-[(4R)-4-methyl-2-(1-methylpyrazolo[3,4-b]pyridin-4-yl)-3,4-dihydro-1H-isoquinolin-6-yl]-3a,4,5,6,7,7a-hexahydro-1H-pyrrolo[3,4-c]pyridin-3-one] was tested. Which IC50 did it give?
A: 6 nM

Q: For `C[C@H]1CN(c2ccnc3c2cnn3C)Cc2ccc(N3CC4(CNCCO4)C3)cc21` [Example 21, 2-[(4R)-4-methyl-2-(1-methylpyrazolo[3,4-b]pyridin-4-yl)-3,4-dihydro-1H-isoquinolin-6-yl]-5-oxa-2,8-diazaspiro[3.5]nonane], which IC50 is on record?
A: 14 nM

Q: For `C[C@H]1CN(c2ccnc3c2cnn3C)Cc2ccc(N3CCN(CCN(C)C)CC3)cc21` [Example 38, N,N-dimethyl-2-[4-[(4R)-4-methyl-2-(1-methylpyrazolo[3,4-b]pyridin-4-yl)-3,4-dihydro-1H-isoquinolin-6-yl]piperazin-1-yl]ethanamine], which IC50 is on record?
A: < 0.3 nM

Q: `Cc1cc(N2Cc3ccc(N4CCC(N(C)C)CC4)nc3[C@@H](C)C2)c2cnn(C)c2n1` [Example 60, N,N-dimethyl-1-[(8S)-6-(1,6-dimethylpyrazolo[3,4-b]pyridin-4-yl)-8-methyl-7,8-dihydro-5H-1,6-naphthyridin-2-yl]piperidin-4-amine] was tested. Which IC50 did it give?
A: 0.5 nM

Q: `CO[C@@H]1CN(c2ccc3c(c2)[C@@H](C)CN(c2ccnc4c2cnn4C)C3)C[C@H]1N` [Example 20, (3R,4R)-4-methoxy-1-[(4R)-4-methyl-2-(1-methylpyrazolo[3,4-b]pyridin-4-yl)-3,4-dihydro-1H-isoquinolin-6-yl]pyrrolidin-3-amine] was tested. Which IC50 did it give?
A: 17 nM

Q: How did the IC50 turn out when `C[C@H]1CN(c2ccnc3c2cnn3C)Cc2ccc(N3CCNC(CO)C3)cc21` (stereo partly drawn) [Example 49, [4-[(4R)-4-methyl-2-(1-methylpyrazolo[3,4-b]pyridin-4-yl)-3,4-dihydro-1H-isoquinolin-6-yl]piperazin-2-yl]methanol] was run?
A: 2 nM

Q: `C[C@H]1CN(c2ccnc3c2cnn3C)Cc2ccc(N3CCN[C@@H](CO)C3)cc21` [Example 50, [(2R)-4-[(4R)-4-methyl-2-(1-methylpyrazolo[3,4-b]pyridin-4-yl)-3,4-dihydro-1H-isoquinolin-6-yl]piperazin-2-yl]methanol] was tested. Which IC50 did it give?
A: 3 nM

Q: For `C[C@H]1CN(c2ccnc3c2cnn3C)Cc2ccc(N3CC4CNC[C@H]4C3=O)cc21` (relative stereo) [Example 17, cis-5-[(4R)-4-methyl-2-(1-methylpyrazolo[3,4-b]pyridin-4-yl)-3,4-dihydro-1H-isoquinolin-6-yl]-1,2,3,3a,6,6a-hexahydropyrrolo[3,4-c]pyrrol-4-one], which IC50 is on record?
A: 11 nM

Q: `C[C@H]1CN(c2ccnc3c2cnn3C)Cc2ccc(N3CCNCC3)nc21` [Example 62, (8S)-8-methyl-6-(1-methylpyrazolo[3,4-b]pyridin-4-yl)-2-piperazin-1-yl-7,8-dihydro-5H-1,6-naphthyridine] was tested. Which IC50 did it give?
A: 2 nM

Q: How did the IC50 turn out when `C[C@H]1CN(c2ccnc3c2cnn3C)Cc2ccc(N3C[C@@H](N)[C@H](O)C3)cc21` [Example 46, trans-4-amino-1-[(4R)-4-methyl-2-(1-methylpyrazolo[3,4-b]pyridin-4-yl)-3,4-dihydro-1H-isoquinolin-6-yl]pyrrolidin-3-ol] was run?
A: 7 nM

Q: How did the IC50 turn out when `C[C@H]1CN(c2ccnc3c2cnn3C)Cc2ccc(N3CCNCC3)cc21` [Example 1, (4R)-4-methyl-2-(1-methylpyrazolo[3,4-b]pyridin-4-yl)-6-piperazin-1-yl-3,4-dihydro-1H-isoquinoline] was run?
A: 2 nM

Q: `C[C@H]1CN(c2ccnc3c2cnn3C)Cc2ccc(OC[C@H]3CNCCN3C)cc21` [Example 43, (4R)-4-methyl-2-(1-methylpyrazolo[3,4-b]pyridin-4-yl)-6-[[(2R)-1-methylpiperazin-2-yl]methoxy]-3,4-dihydro-1H-isoquinoline] was tested. Which IC50 did it give?
A: 2 nM

Q: Which IC50 does the source give for `Cc1cc(N2Cc3ccc(N4CCN(C)CC4)nc3[C@@H](C)C2)c2cnn(C)c2n1` [Example 67, (8S)-6-(1,6-dimethylpyrazolo[3,4-b]pyridin-4-yl)-8-methyl-2-(4-methylpiperazin-1-yl)-7,8-dihydro-5H-1,6-naphthyridine] here?
A: 1 nM
